# From patent publication US20110059909A1, “METHODS FOR TREATING INFLAMMATORY DISORDERS” (priority 2004, published 2011)
# Columns and labels:
# rat SCI model = assay: Histology (H&E) and myelin (LFB-PAS) of spinal cord sections, rat SCI model; format: in vivo
# Text: Sprague-Dawley female rats (225-250 g weight) were purchased (Harlan laboratories, Durham, N.C.) for induction of SCI. All rats were given water and food pellets ad libitum and maintained in accordance with the ‘Guide for the Care and Use of Laboratory Animals’ of the US Department of Health and Human Services (National Institutes of Health, Bethesda, Md., USA). The inventors have used a clinically relevant weight-drop device for the induction of SCI in rats as described earlier (Gruner, 1992). Briefly, rats were anesthetized by intraperitoneal (i.p.) administration of ketamine (80 mg/kg) plus xylazine (10 mg/kg) followed by laminectomy at T12. While the spine was immobilized with a stereotactic device, injury (30 g/cm force) was induced by dropping a weight of 5 gm from a height of 6 cm onto an impounder gently placed on the spinal cord. Sham operated animals underwent laminectomy only. Upon recovery from anesthesia, animals were evaluated neurologically and monitored for food and water intake. However, no prophylactic antibiotics or analgesics were used in order to avoid their possible interactions with the experimental therapy of SCI.
# Rats were anesthetized and sacrificed by decapitation.
# NF-κB = assay: κB-repeat luciferase reporter gene assay; format: cell-based, rat
# Description: Dominant negative and constitutively active ras expression vector (pCMVrasN17 and pCMVrasv12) and κB repeat luciferase reporter construct (pNF-κB-Luc) were purchased from BD Biosciences. 3×10^5 cells/well were cultured in 6-well plates for one day before the transfection. Transfection was performed with plasmid concentration constant (2.5 μg/transfection) and 8 μl of Fugene transfection reagent (Roche Molecular Biochemicals). 24 h after transfection, the cells were placed in serum free media for overnight. Following appropriate treatment, the cells were washed with phosphate buffered saline (PBS), scraped, and then resuspended with 100 μl of lysis buffer (40 mM of Tricine pH 7.8, 50 mM of NaCl, 2 mM of EDTA, 1 mM of MgSO4, 5 mM of dithiothreitol, and 1% of Triton X-100). After incubation at room temperature for 15 min with occasional vortexing, the samples were centrifuged. The luciferase and β-galactosidase activities were measured by using luciferase assay kit (Stratagene, CA) and β-gal assay kit (Invitrogen, CA) respectively. The emitted light and optical absorbance was measured using Spectra Max/Gemini XG (Molecular Device, CA) and SpectraMax 190 (Molecular Device).
# iNOS = iNOS expression at the lesion epicenter following SCI
# IκB = assay: Phosphorylated IκB immunoblot of cytoplasmic extract; format: cell-based, rat; details: LPS/IFNγ
# Description: (§1) For iNOS protein, the cells were washed with cold Tris buffered saline (TBS; 20 mM Trizma base, and 137 mM NaCl, pH 7.5), lysed in 1×SDS sample loading buffer (62.5 mM Trizma base, 2% w/v SDS, 10% glycerol), following sonication and centrifugation at 15,000×g for 5 min, the supernatant was used for the iNOS western immunoblot assay. The protein concentration of samples was determined with the detergent compatible protein assay reagent (Bio-Rad Laboratories, CA) using bovine serum albumin (BSA) as the standard. Sample was boiled for 3 min with 0.1 volumes of 10% β-mercaptoethanol and 0.5% bromophenol blue mix. Fifty μg of total cellular protein was resolved by electrophoresis on 8 or 12% polyacrylamide gels, electro-transferred to polyvinylidene difluoride (PVDF) filter and blocked with Tween 20 containing Tris-buffered saline (TBST; 10 mM Trizma base-pH 7.4, 1% Tween 20, and 150 mM NaCl) with 5% skim milk. […] The membranes were detected by autoradiography using ECL-plus (Amersham Pharmacia Biotech) after washing with TBST buffer.
# [1] = test system: primary cultured rat neocortical explants; details: cited from earlier work
# TNFα = TNFα expression at the lesion epicenter following SCI
# [2] = cited from earlier work
# neurons = assay: Fluorescent TUNEL / NeuN staining of spinal cord sections following SCI; format: in vivo, rat
# Description: TUNEL assay was carried out using APOPTAG Fluorescein In Situ Apoptosis Detection Kit (Serological Corporation, Norcross, Ga.) according to manufacturer's protocol. For double labeling, sections were incubated with mouse anti-neuronal nuclei 1:100 (NeuN, Chemicon, USA). Sections were incubated with TRITC conjugated […] 1:100 (Sigma), mounted in mounting media and visualized by fluorescence microscopy.
# [3] = test system: primary cultured rat neocortical explants; details: cited from earlier work; remark: listed apart in the source
# GalT-2 = GalT-2 protein level by immunoblot after antisense transfection; format: cell-based, rat; details: 48 h after transfection, 200 nM oligo
# Description: as §1, with “mix.” for “mix. Fifty μg of total cellular protein was resolved by electrophoresis on 8 or 12% polyacrylamide gels, electro-transferred to polyvinylidene difluoride (PVDF) filter and blocked with Tween 20 containing Tris-buffered saline (TBST; 10 mM Trizma base-pH 7.4, 1% Tween 20, and 150 mM NaCl) with 5% skim milk.”
# A 20-mer antisense oligonucleotide of the following sequence (5′-CGCTTGAGCGCAGACATCTT-3′, SEQ ID NO:1) targeted against rat lactosylceramide synthase (GalT-2) were synthesized by Integrated DNA Technology. […] Cells were counted and plated a day before transfection and the following day were treated with Oligofectamine (Invitrogen)-oligonucleotide complexes (200 nM oligo) under serum free conditions. 48 h following transfection, the protein levels of GalT-2 were analyzed using polyclonal antibodies raised against rat GalT-2 (Abjent Inc., CA). […]
compound,measurement,setting,value
"CCCCCCCCCC(=O)NC(CN1CCOCC1)C(O)c1ccccc1.Cl [PDMP, D-threo-1-Phenyl-2-decanoylamino-3-morpholino-1-propanol.HCl]",Demyelination at the lesion epicenter,rat SCI model; Day 2 and 3 post-SCI,reduced
same,Tissue necrosis at the lesion epicenter,rat SCI model; Day 2 and 3 post-SCI,reduced
same,SCI induced white matter vacuolization and tissue necrosis,"rat SCI model; PDMP 20 mg/kg i.p. post-SCI, tissue analyzed 24 h post-SCI",markedly decreased
same,Protection against tissue destruction,"rat SCI model; PDMP given 12 h post-SCI, tissue analyzed 24 h post-SCI",substantial amount of protection
same,Demyelination (LFB staining),"rat SCI model; PDMP treatment until 12 h post-SCI, 24 h post-SCI",attenuated
same,LPS/IFNγ-induced κB-luciferase activity,NF-κB; PDMP 0.5 h before LPS/IFNγ,abolished
same,iNOS mRNA (real time PCR) and protein expression,iNOS; 12 h following SCI,markedly suppressed
same,"iNOS expression, double immunofluorescence",iNOS; 24 h post-SCI,significantly reduced
same,Phosphorylation of IκB,IκB; in the presence of PDMP,Decreased
same,GSL biosynthesis,[1],inhibited
same,TNFα mRNA levels,TNFα; 1 h post-SCI,markedly inhibited
same,"TNFα protein levels, immunofluorescence",TNFα; post-SCI (sections extracted 1 h),significantly suppressed
same,Solubility in water,[2],soluble in water
same,Apoptosis of neurons (TUNEL/NeuN),neurons; 24 h post-SCI,provided protection
same,Effect on neuronal survival in sham operated animals,"neurons; sham operated, PDMP 20 mg/kg",no adverse effect
same,Neurite outgrowth,[3],inhibited
"AS GalT-2 oligonucleotides: 20-mer antisense oligonucleotide 5′-CGCTTGAGCGCAGACATCTT-3′, SEQ ID NO:1, against rat lactosylceramide synthase (GalT-2) (antisense CGCTTGAGCGCAGACATCTT; chemistry not given here)",GalT-2 protein levels,GalT-2,diminished protein levels
Lactosylceramide [LacCer],Reversal of PDMP effect on κB-luciferase activity,NF-κB; exogenous LacCer,effectively bypassed
same,Levels of phosphorylated IκB when LacCer was added to PDMP,IκB; PDMP plus LacCer,increased
